Values of other authors, collected in EP0918795B1, “ANTIANGIOGENIC DRUG TO TREAT CANCER, ARTHRITIS AND RETINOPATHY” (Abbott Laboratories, priority 1997, dated 2004).
No end group written: not given here.

What was measured:
[1] = test system: cultured endothelial cells; details: inhibition of the migration of cultured endothelial cells

Question: Which ED50 [1] does the source give for “SPWSSASVTAGDGVITRIR [MalII, 19-mer synthetic peptide mimicking properdin-like repeat region 1 of TSP1]” here?
Answer: The ED50 was “about 1 µM”.

Question: What about the “neovascularization in vivo in the rat cornea” value (rat cornea) of the same sequence?
Answer: Its value is “blocked neovascularization”.
